Experiments:
PCA reaction = assay: Mouse Passive Cutaneous Anaphylaxis (PCA) Test; assay type: in vivo; details: Male ICR (CD-1) mice; subcutaneously 30 minutes or orally 2 hours before antigen challenge
Description: 3. Mouse Passive Cutaneous Anaphylaxis (PCA) Test […] After 24 hours of the sensitization, 200 μl of 0.5% Evans blue solution containing 50 μg of DNP-conjugated bovine serum albumin was intravenously administered, and, after 30 minutes, each mouse was sacrificed through exsanguination to isolate both ears. […] The dye in the tissues was extracted with formaride and colorimetrically determined at 620 nm. A value obtained by subtracting the dye content of the left ear from the dye content of the right ear was used as the amount of dye leaked into the tissues by the PCA reaction. The PCA inhibition ratio by the test compound was calculated based on the following equation. In the formula, C: amount of the dye leaked into the tissue at the time of the administration of the vehicle alone, and x: amount of the dye leaked into the tissue at the time of the administration of the test compound. Inhibition ratio (%)={C-X}×100/C

release of serotonin = assay: Serotonin Release Test; assay type: cell-based; details: read-out: inhibitory activity as IC50 value against the release of serotonin
Description: 2. Serotonin Release Test
This was carried out in accordance with the method reported by Collado-Escobar et al. (Collado-Escobar, D et al. J. Immunol., 144: 3449-3457 (1990)).

Syk = target: T1, Syk (Homo sapiens, UniProt P43405); assay: Syk Tyrosine Kinase Inhibition Test (SPA system); assay type: biochemical
T1 construct: FLAG tag (8 amino acid residues) (C); made in house; host or cells: Sf-9 insect cells (baculovirus, pFASTBAC HT)
Excerpt: 1. Syk Tyrosine Kinase Inhibition Test
1) Preparation of Syk Protein
Human Syk gene, in the form where a gene of FLAG tag consisting of 8 amino acid residues was linked to the 3′-end, was cloned using RT-PCR method from total RNA prepared from Jurkat cells. The amplified cDNA was incorporated into a vector, pFASTBAC HT, contained in Baculovirus Expression System (GIBCO BRL Inc.). The pFASTBAC HT is designed in such a manner that a His tag consisting of 6 histidine residues can be fused to the 5′-end of Syk. This plasmid DNA was introduced into competent cells, DH10BAC, contained in the Baculovirus Expression System to prepare DNA of recombinant virus. Thereafter, the recombinant virus (culture supernatant) was obtained by transfection of the DNA of recombinant virus into Sf-9 cells (ATCC). […]
SPA (Scintillation Proximity Assay) is a system developed by Amersham making use of a phenomenon in which scintillation occurs when a molecule having a radioactivity is in the proximity of (linked to) the surface of plastic beads containing a scintillant included therein. […]
The plate was sealed, stirred, allowed to stand at room temperature for 15 minutes and then centrifuged at 1,500 rpm for 3 minutes to precipitate the SPA beads. Radioactivity of each well was measured using TOP COUNT (PACKARD), and the tyrosine phosphorylation activity by Syk was calculated.

Cc1cccc(Nc2nc(N[C@@H]3CCCC[C@@H]3N)ccc2C(N)=O)c1.Cl (relative stereo) [Example 1]
suppression of PCA reaction (PCA reaction): excellently suppressed PCA reaction

Cc1cccc(Nc2nc(N[C@@H]3CCCC[C@@H]3N)cnc2C(N)=O)c1 (relative stereo) [Example 2, 5-(cis-2-aminohexylamino)-3-(3-methylanilino)pyrazine-2-carboxamide]
suppression of PCA reaction (PCA reaction): excellently suppressed PCA reaction

COc1cccc(Nc2nc(N[C@@H]3CCCC[C@@H]3N)cnc2C(N)=O)c1 (relative stereo) [Example 8, 5-(cis-2-aminocyclohexylamino)-3-(3-methoxyanilino)pyrazine-2-carboxamide]
suppression of PCA reaction (PCA reaction): excellently suppressed PCA reaction
IC50 (release of serotonin): ≤ 100 nM

COc1cc(Nc2nc(N[C@@H]3CCCC[C@@H]3N)cnc2C(N)=O)cc(OC)c1 (relative stereo) [Example 10, 5-(cis-2-aminocyclohexylamino)-3-(3,5-dimethoxyanilino)pyrazine-2-carboxamide]
suppression of PCA reaction (PCA reaction): excellently suppressed PCA reaction
IC50 (release of serotonin): ≤ 100 nM

CSc1ccc(Nc2nc(N[C@@H]3CCCC[C@@H]3N)cnc2C(N)=O)cc1 (relative stereo) [Example 11, 5-(cis-2-aminocyclohexylamino)-3-(4-methylsulfanylanilino)pyrazine-2-carboxamide]
suppression of PCA reaction (PCA reaction): excellently suppressed PCA reaction
IC50 (release of serotonin): ≤ 100 nM

CN(C)C(=O)c1cnc(NCCN)nc1Nc1cccc(C(F)(F)F)c1 [2-(2-aminoethylamino)-N,N-dimethyl-4-(3-trifluoromethylanilino)pyrimidine-5-carboxamide]
inhibitory activity against Syk at 1 μM (Syk): did not exhibit any inhibitory activity

CNC(=O)c1cnc(NCCN)nc1Nc1cccc(C(F)(F)F)c1 [2-(2-aminoethylamino)-N-methyl-4-(3-trifluoromethylanilino)pyrimidine-5-carboxamide]
inhibitory activity against Syk at 1 μM (Syk): did not exhibit any inhibitory activity
